{"source": "paper PMC9841532", "about": "“Exploring the Effect of Halogenation in a Series of Potent and Selective A2B Adenosine Receptor Antagonists” (Journal of Medicinal Chemistry, 2022)", "key": {"[1]": {"target": "T1, hA1AR (Homo sapiens, UniProt P30542)", "T1 sequence (P30542 1-326)": "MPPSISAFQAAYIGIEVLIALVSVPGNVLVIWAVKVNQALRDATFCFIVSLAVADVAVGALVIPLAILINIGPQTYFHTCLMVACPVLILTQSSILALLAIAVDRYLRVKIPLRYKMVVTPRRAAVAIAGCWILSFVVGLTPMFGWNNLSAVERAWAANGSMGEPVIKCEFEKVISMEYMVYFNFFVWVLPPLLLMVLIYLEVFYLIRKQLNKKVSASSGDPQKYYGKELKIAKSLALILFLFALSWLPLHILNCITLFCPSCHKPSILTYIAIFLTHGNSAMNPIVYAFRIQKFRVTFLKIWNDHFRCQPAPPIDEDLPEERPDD", "assay": "Radioligand binding competition, [3H]DPCPX, membranes from CHO-A1 cells", "conditions": "1 μM, [3H]DPCPX, human CHO cells, n = 2", "method": "(§1) All ligands reported in Tables 1–5 were obtained and tested as racemic mixtures. The whole set was evaluated in silico with a combination of a Rdkit[37] PAINS filter and Instant JChem from Chemaxon (https://www.chemaxon.com), to rule out the possibility that these ligands can be promiscuous pan-assay interference compounds (PAINS) and to assess their bioavailability, respectively. […] The stereoisomers of selected compounds were obtained by chiral resolution and tested at the four human AR subtypes in their enantiopure forms (Table 6).\n(§2) A brief description is given below. […] Non-specific binding was determined in the presence of 10 μM R-PIA. The reaction mixture was incubated at 25 °C for 60 min. […] The reaction mixture was incubated at 25 °C for 30 min. […] The reaction mixture was incubated at 25 °C for 30 min. […] Non-specific binding was determined in the presence of 100 μM R-PIA. […] After the incubation time, membranes were washed and filtered and radioactivity was detected in a MicroBeta TriLux reader (PerkinElmer)."}, "[2]": {"target": "T2, hA2BAR (Homo sapiens, UniProt P29275)", "T2 construct": "host or cells: HEK-293 (HEK-293-A2B) cell membranes", "T2 sequence (P29275 1-332)": "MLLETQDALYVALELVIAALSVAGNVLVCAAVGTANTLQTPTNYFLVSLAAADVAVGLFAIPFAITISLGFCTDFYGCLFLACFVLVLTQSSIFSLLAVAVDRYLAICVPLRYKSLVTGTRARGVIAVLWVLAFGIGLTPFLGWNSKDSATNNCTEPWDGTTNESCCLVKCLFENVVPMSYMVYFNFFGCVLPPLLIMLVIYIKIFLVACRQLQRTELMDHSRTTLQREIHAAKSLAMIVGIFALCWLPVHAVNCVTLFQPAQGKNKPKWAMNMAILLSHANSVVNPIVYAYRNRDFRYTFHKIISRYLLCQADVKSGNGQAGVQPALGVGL", "assay": "Radioligand binding competition, [3H]DPCPX, membranes from HEK-293-A2B cells", "parameters": "Exp. dG: unit not given here", "conditions": "for Ki: read-out: Ki hA2B; for Exp. dG: experimental binding free energy, Supplementary Table S3, unit not given (errors in kcal/mol); for % at 1 μM hA2B (percentage displacement of specific binding): [3H]DPCPX, human HEK-293 cells, n = 2", "method": "as §1, §2"}, "[3]": {"target": "T3, hA2AAR (Homo sapiens, UniProt P29274)", "T3 construct": "expressed in transfected cells; host or cells: HeLa (HeLa-A2A) cell membranes", "T3 sequence (P29274 whole entry)": "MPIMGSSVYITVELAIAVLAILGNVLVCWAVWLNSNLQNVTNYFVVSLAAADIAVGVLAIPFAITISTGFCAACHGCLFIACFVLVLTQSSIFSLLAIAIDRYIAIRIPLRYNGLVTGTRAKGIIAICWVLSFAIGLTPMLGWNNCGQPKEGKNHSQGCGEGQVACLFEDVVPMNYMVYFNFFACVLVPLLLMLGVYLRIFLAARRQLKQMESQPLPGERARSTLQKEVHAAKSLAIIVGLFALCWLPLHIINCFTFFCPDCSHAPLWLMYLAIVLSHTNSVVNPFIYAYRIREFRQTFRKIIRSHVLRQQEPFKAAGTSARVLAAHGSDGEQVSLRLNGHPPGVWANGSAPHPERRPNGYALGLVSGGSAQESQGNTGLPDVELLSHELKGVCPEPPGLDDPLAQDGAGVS", "assay": "Radioligand binding competition, [3H]ZM241385, membranes from HeLa-A2A cells", "conditions": "for % at 1 μM hA2A (percentage displacement of specific binding): [3H]ZM241385, human HeLa cells, n = 2", "method": "as §1, §2"}, "[4]": {"target": "T4, hA3AR (Homo sapiens, UniProt P0DMS8)", "T4 construct": "expressed in transfected cells; host or cells: HeLa (HeLa-A3) cell membranes", "T4 sequence (P0DMS8 1-318)": "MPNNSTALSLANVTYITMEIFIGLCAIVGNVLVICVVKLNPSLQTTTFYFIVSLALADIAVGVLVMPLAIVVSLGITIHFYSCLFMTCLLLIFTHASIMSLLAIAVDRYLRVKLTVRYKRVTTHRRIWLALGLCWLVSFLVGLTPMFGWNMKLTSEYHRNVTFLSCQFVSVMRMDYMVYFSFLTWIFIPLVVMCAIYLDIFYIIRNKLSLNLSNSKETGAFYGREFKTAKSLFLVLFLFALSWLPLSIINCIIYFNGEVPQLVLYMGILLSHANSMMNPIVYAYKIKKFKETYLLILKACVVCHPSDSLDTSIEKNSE", "assay": "Radioligand binding competition, [3H]NECA, membranes from HeLa-A3 cells", "conditions": "1 μM, [3H]NECA, human HeLa cells, n = 2", "method": "as §1, §2"}, "[5]": {"conditions": "displacement of specific [3H]DPCPX binding in human HEK-293 cells, n = 3"}}, "note": "Where two headings read alike, the source gives them in different places.", "data": [{"smiles": "CC1=C(C(=O)OC(C)C)C(c2ccoc2)n2c(nc3cc(Br)ccc32)N1", "note": "(stereo not shown) [16t]", "values": [{"measurement": "% at 1 μM hA1 (percentage displacement of specific binding)", "setting": "[1]", "value": 2, "unit": "%"}, {"measurement": "Ki", "setting": "[2]; [5]", "value": "8.2 ± 1.1", "unit": "nM"}, {"measurement": "Ki", "setting": "[2]", "value": "< 10", "unit": "nM"}, {"measurement": "Ki", "setting": "[3]; displacement of specific [3H]ZM241385 binding in human HeLa cells, n = 3, read-out: Ki hA2A", "value": "509 ± 6", "unit": "nM"}, {"measurement": "% at 1 μM hA3 (percentage displacement of specific binding)", "setting": "[4]", "value": 2, "unit": "%"}]}, {"smiles": "CC1=C(C(=O)OC(C)C)C(c2cccs2)n2c(nc3cc(Cl)ccc32)N1", "note": "(stereo not shown) [16n]", "values": [{"measurement": "% at 1 μM hA1 (percentage displacement of specific binding)", "setting": "[1]", "value": 2, "unit": "%"}, {"measurement": "Ki", "setting": "[2]; [5]", "value": "837 ± 11", "unit": "nM"}, {"measurement": "Exp. dG", "setting": "[2]", "value": -8.286}, {"measurement": "% at 1 μM hA2A (percentage displacement of specific binding)", "setting": "[3]", "value": 2, "unit": "%"}, {"measurement": "% at 1 μM hA3 (percentage displacement of specific binding)", "setting": "[4]", "value": 1, "unit": "%"}]}, {"smiles": "CCOC(=O)C1=C(C)Nc2nc3cc(F)c(F)cc3n2C1c1ccoc1", "note": "(stereo not shown) [14c]", "values": [{"measurement": "% at 1 μM hA1 (percentage displacement of specific binding)", "setting": "[1]", "value": 22, "unit": "%"}, {"measurement": "Ki", "setting": "[2]; [5]", "value": "28.2 ± 0.8", "unit": "nM"}, {"measurement": "% at 1 μM hA2A (percentage displacement of specific binding)", "setting": "[3]", "value": 36, "unit": "%"}, {"measurement": "% at 1 μM hA3 (percentage displacement of specific binding)", "setting": "[4]", "value": 17, "unit": "%"}]}, {"smiles": "CC1=C(C(=O)OC(C)C)C(c2ccoc2)n2c(nc3ccc(Cl)cc32)N1", "note": "(stereo not shown) [15l]", "values": [{"measurement": "% at 1 μM hA1 (percentage displacement of specific binding)", "setting": "[1]", "value": 6, "unit": "%"}, {"measurement": "% at 1 μM hA2B (percentage displacement of specific binding)", "setting": "[2]", "value": 50, "unit": "%"}, {"measurement": "% at 1 μM hA2A (percentage displacement of specific binding)", "setting": "[3]", "value": 4, "unit": "%"}, {"measurement": "% at 1 μM hA3 (percentage displacement of specific binding)", "setting": "[4]", "value": 3, "unit": "%"}]}, {"smiles": "CCOC(=O)C1=C(C)Nc2nc3cc(Cl)ccc3n2C1c1cocn1", "note": "(stereo not shown) [18c]", "values": [{"measurement": "% at 1 μM hA1 (percentage displacement of specific binding)", "setting": "[1]", "value": 30, "unit": "%"}, {"measurement": "Ki", "setting": "[2]; [5]", "value": "8.6 ± 0.4", "unit": "nM"}, {"measurement": "Exp. dG", "setting": "[2]", "value": -11}, {"measurement": "Ki", "setting": "[2]", "value": "< 10", "unit": "nM"}, {"measurement": "% at 1 μM hA2A (percentage displacement of specific binding)", "setting": "[3]", "value": 13, "unit": "%"}, {"measurement": "% at 1 μM hA3 (percentage displacement of specific binding)", "setting": "[4]", "value": 15, "unit": "%"}]}, {"smiles": "CCOC(=O)C1=C(C)Nc2nc3ccc(F)cc3n2C1c1ccco1", "note": "(stereo not shown) [15a]", "values": [{"measurement": "% at 1 μM hA1 (percentage displacement of specific binding)", "setting": "[1]", "value": 16, "unit": "%"}, {"measurement": "Ki", "setting": "[2]; [5]", "value": "67.5 ± 3.1", "unit": "nM"}, {"measurement": "Exp. dG", "setting": "[2]", "value": -9.777}, {"measurement": "% at 1 μM hA2A (percentage displacement of specific binding)", "setting": "[3]", "value": 2, "unit": "%"}, {"measurement": "% at 1 μM hA3 (percentage displacement of specific binding)", "setting": "[4]", "value": 10, "unit": "%"}]}, {"smiles": "CC1=C(C(=O)OC(C)C)C(c2cocn2)n2c(nc3cc(Cl)ccc32)N1", "note": "(stereo not shown) [18d]", "values": [{"measurement": "% at 1 μM hA1 (percentage displacement of specific binding)", "setting": "[1]", "value": 23, "unit": "%"}, {"measurement": "Ki", "setting": "[2]; [5]", "value": "6.4 ± 0.7", "unit": "nM"}, {"measurement": "Exp. dG", "setting": "[2]", "value": -11.17}, {"measurement": "Ki", "setting": "[2]", "value": "< 10", "unit": "nM"}, {"measurement": "% at 1 μM hA2A (percentage displacement of specific binding)", "setting": "[3]", "value": 35, "unit": "%"}, {"measurement": "% at 1 μM hA3 (percentage displacement of specific binding)", "setting": "[4]", "value": 23, "unit": "%"}]}, {"smiles": "CCOC(=O)C1=C(C)Nc2nc3ccc(F)cc3n2C1c1cocn1", "note": "(stereo not shown) [17a]", "values": [{"measurement": "% at 1 μM hA1 (percentage displacement of specific binding)", "setting": "[1]", "value": 43, "unit": "%"}, {"measurement": "Ki", "setting": "[2]; [5]", "value": "44.7 ± 1.4", "unit": "nM"}, {"measurement": "Exp. dG", "setting": "[2]", "value": -10.02}, {"measurement": "% at 1 μM hA2A (percentage displacement of specific binding)", "setting": "[3]", "value": 4, "unit": "%"}, {"measurement": "% at 1 μM hA3 (percentage displacement of specific binding)", "setting": "[4]", "value": 26, "unit": "%"}]}, {"smiles": "CC1=C(C(=O)OC(C)C)C(c2cocn2)n2c(nc3ccc(F)cc32)N1", "note": "(stereo not shown) [17b]", "values": [{"measurement": "% at 1 μM hA1 (percentage displacement of specific binding)", "setting": "[1]", "value": 34, "unit": "%"}, {"measurement": "Ki", "setting": "[2]; [5]", "value": "7.6 ± 0.6", "unit": "nM"}, {"measurement": "Exp. dG", "setting": "[2]", "value": -11.07}, {"measurement": "Ki", "setting": "[2]", "value": "< 10", "unit": "nM"}, {"measurement": "% at 1 μM hA2A (percentage displacement of specific binding)", "setting": "[3]", "value": 19, "unit": "%"}, {"measurement": "% at 1 μM hA3 (percentage displacement of specific binding)", "setting": "[4]", "value": 22, "unit": "%"}]}, {"smiles": "CC1=C(C(=O)OC(C)C)C(c2ccsc2)n2c(nc3cc(F)c(F)cc32)N1", "note": "(stereo not shown) [14h]", "values": [{"measurement": "% at 1 μM hA1 (percentage displacement of specific binding)", "setting": "[1]", "value": 1, "unit": "%"}, {"measurement": "% at 1 μM hA2B (percentage displacement of specific binding)", "setting": "[2]", "value": 43, "unit": "%"}, {"measurement": "% at 1 μM hA2A (percentage displacement of specific binding)", "setting": "[3]", "value": 3, "unit": "%"}, {"measurement": "% at 1 μM hA3 (percentage displacement of specific binding)", "setting": "[4]", "value": 4, "unit": "%"}]}, {"smiles": "CCOC(=O)C1=C(C)Nc2nc3ccc(Br)cc3n2C1c1ccoc1", "note": "(stereo not shown) [15s]", "values": [{"measurement": "% at 1 μM hA1 (percentage displacement of specific binding)", "setting": "[1]", "value": 10, "unit": "%"}, {"measurement": "Ki", "setting": "[2]; [5]", "value": "318 ± 6", "unit": "nM"}, {"measurement": "Ki", "setting": "[2]", "value": "~45", "unit": "nM"}, {"measurement": "% at 1 μM hA2A (percentage displacement of specific binding)", "setting": "[3]", "value": 1, "unit": "%"}, {"measurement": "% at 1 μM hA3 (percentage displacement of specific binding)", "setting": "[4]", "value": 19, "unit": "%"}]}]}
